These compounds were tested on HBV (assay: HBV replication inhibition assay (BDNA assay)). Details: Hepatitis B virus, HepG2.2.15, 144 h, HepG2.2.15 cells, incubated with compound for 6 days, encapsidated HBV DNA from supernatant detected by branched DNA QuantiGene assay.
Assay type: cell-based
Description: HBV replication inhibition by the disclosed compounds were determined in cells infected or transfected with HBV or cells with stably integrated HBV, such as HepG2.2.15 cells (Sells et al. 1987). In this example, HepG2.2.15 cells were maintained in cell culture medium containing 10% fetal bovine serum (FBS), Geneticin, L-glutamine, penicillin and streptomycin. HepG2.2.15 cells were seeded in 96-well plates at a density of 40,000 cells/well and were treated with serially diluted compounds at a final DMSO concentration of 0.5% either alone or in combination by adding drugs in a checker box format. Cells were incubated with compounds for three days, after which medium was removed and fresh medium containing compounds was added to cells and incubated for another three days. At day 6, supernatant was removed and treated with DNase at 37° C. for 60 minutes, followed by enzyme inactivation at 75° C. for 15 minutes. Encapsidated HBV DNA was released from the virions and covalently linked HBV polymerase by incubating in lysis buffer (Affymetrix QS0010) containing 2.5 μg proteinase K at 50° C. for 40 minutes. HBV DNA was denatured by addition of 0.2 M NaOH and detected using a branched DNA (BDNA) QuantiGene assay kit according to manufacturer recommendation (Affymetrix). HBV DNA levels were also quantified using qPCR, based on amplification of encapsidated HBV DNA extraction with QuickExtraction Solution (Epicentre Biotechnologies) and amplification of HBV DNA using HBV specific PCR probes that can hybridize to HBV DNA and a fluorescently labeled probe for quantitation. In addition, cell viability of HepG2.2.15 cells incubated with test compounds alone or in combination was determined by using CellTitre-Glo reagent according to the manufacturer protocol (Promega). The mean background signal from wells containing only culture medium was subtracted from all other samples, and percent inhibition at each compound concentration was calculated by normalizing to signals from HepG2.2.15 cells treated with 0.5% DMSO using equation E1.
where DMSOave is the mean signal calculated from the wells that were treated with DMSO control (0% inhibition control) and Xi is the signal measured from the individual wells. EC50 values, effective concentrations that achieved 50% inhibitory effect, were determined by non-linear fitting using Graphpad Prism software (San Diego, Calif.) and equation E2.
where Y represents percent inhibition values and X represents the logarithm of compound concentrations.
Selected disclosed compounds were assayed in the HBV replication assay (BDNA assay), as described above, and a representative group of these active compounds is shown in Table 3.

How did the EC50 turn out when `N#Cc1cc(NC(=O)N2CCc3nn4c(c3C2)-c2nnccc2CCC4)ccc1F` [Example 24, N-(3-Cyano-4-fluorophenyl)-6,7,10,11-tetrahydro-5H-pyridazino[3,4-c]pyrido[4′,3′:3,4]pyrazolo[1,5-a]azepine-12(13H)-carboxamide] was run?
The EC50 was 910 nM.

`O=C(Nc1ccc(F)c(Cl)c1)N1CCc2nn3c(c2C1)-c1n[nH]cc1CCC3` [Example 25, N-(3-Chloro-4-fluorophenyl)-4,5,6,9,10,12-hexahydropyrazolo[3,4-c]pyrido[4′,3′:3,4]pyrazolo[1,5-a]azepine-11(2H)-carboxamide] was tested. Which EC50 did it give?
Its EC50 is 28 nM.

Which EC50 does the source give for `N#Cc1cc(NC(=O)N2CCc3nn4c(c3C2)-c2n[nH]cc2CCC4)ccc1F` [Example 26, N-(3-Cyano-4-fluorophenyl)-4,5,6,9,10,12-hexahydropyrazolo[3,4-c]pyrido[4′,3′:3,4]pyrazolo[1,5-a]azepine-11(2H)-carboxamide] here?
Its EC50 is 23 nM.

With `N#Cc1cc(NC(=O)N2CCc3nn4c(c3C2)-c2ncccc2CCC4)ccc1F` [Example 27, N-(3-Cyano-4-fluorophenyl)-6,7,10,11-tetrahydro-5H-pyrido[2,3-c]pyrido[4′,3′:3,4]pyrazolo[1,5-a]azepine-12(13H)-carboxamide] as the compound, how does the EC50 read?
Its EC50 is 170 nM.

For `O=C(Nc1ccc(F)c(C(F)(F)F)c1)N1CCc2nn3c(c2C1)-c1ncccc1CCC3` [Example 28, N-(4-Fluoro-3-(trifluoromethyl)phenyl)-6,7,10,11-tetrahydro-5H-pyrido[2,3-c]pyrido[4′,3′:3,4]pyrazolo[1,5-a]azepine-12(13H)-carboxamide], which EC50 is on record?
The EC50 was 1800 nM.

For `Cn1cc2c(n1)-c1c3c(nn1CCC2)CCN(C(=O)Nc1ccc(F)c(Cl)c1)C3` [Example 29, N-(3-Chloro-4-fluorophenyl)-2-methyl-4,5,6,9,10,12-hexahydropyrazolo[3,4-c]pyrido[4′,3′:3,4]pyrazolo[1,5-a]azepine-11(2H)-carboxamide], which EC50 is on record?
Its EC50 is 3100 nM.

With `Cn1ncc2c1-c1c3c(nn1CCC2)CCN(C(=O)Nc1ccc(F)c(Cl)c1)C3` [Example 30, N-(3-Chloro-4-fluorophenyl)-1-methyl-4,5,6,9,10,12-hexahydropyrazolo[3,4-c]pyrido[4′3′:3,4]pyrazolo[1,5-a]azepine-11(1H)-carboxamide] as the compound, how does the EC50 read?
The EC50 was 3400 nM.

With `O=C(Nc1ccc(F)c(Cl)c1)N1CCc2nn3c(c2C1)-c1nocc1CCC3` [Example 31, N-(3-Chloro-4-fluorophenyl)-5,6,9,10-tetrahydro-4H-isoxazolo[3,4-c]pyrido[4′,3′:3,4]pyrazolo[1,5-a]azepine-11(12H)-carboxamide] as the compound, how does the EC50 read?
The EC50 was 9 nM.

With `O=C(Nc1ccc(F)c(Cl)c1)N1CCc2nn3c(c2C1)-c1oncc1CCC3` [Example 32, N-(3-Chloro-4-fluorophenyl)-5,6,9,10-tetrahydro-4H-isoxazolo[5,4-c]pyrido[4′,3′:3,4]pyrazolo[1,5-a]azepine-11(12H)-carboxamide] as the compound, how does the EC50 read?
The EC50 was 12 nM.

Which EC50 does the source give for `N#Cc1cc(NC(=O)N2CCn3nc4c(c3C2)-c2oncc2CCC4)ccc1F` [Example 33, N-(3-Cyano-4-fluorophenyl)-5,6,9,10-tetrahydro-4H-isoxazolo[5″,4″:3′,4′]-cyclohepta[1′,2′:3,4]pyrazolo[1,5-a]pyrazine-11(12H)-carboxamide] here?
The EC50 was 790 nM.

With `O=C(Nc1ccc(F)c(C(F)(F)F)c1)N1CCn2nc3c(c2C1)-c1oncc1CCC3` [Example 34] as the compound, how does the EC50 read?
The EC50 was 440 nM.

`N#Cc1cc(NC(=O)N2CCn3nc4c(c3C2)-c2nocc2CCC4)ccc1F` [Example 35, N-(3-Cyano-4-fluorophenyl)-5,6,9,10-tetrahydro-4H-isoxazolo[3″,4″:3′,4′]-cyclohepta[1′,2′:3,4]pyrazolo[1,5-a]pyrazine-11(12H)-carboxamide] was tested. Which EC50 did it give?
The EC50 was 170 nM.

With `O=C(Nc1ccc(F)c(C(F)(F)F)c1)N1CCn2nc3c(c2C1)-c1nocc1CCC3` [Example 36, N-(4-Fluoro-3-(trifluoromethyl)phenyl)-5,6,9,10-tetrahydro-4H-isoxazolo[3″,4″:3′,4′]cyclohepta[1′,2′:3,4]pyrazolo[1,5-a]pyrazine-11(12H)-carboxamide] as the compound, how does the EC50 read?
The EC50 was 180 nM.
